Values quoted from earlier work in PubChem BioAssay AID1259409 (Chemical Carcinogenesis Research Information System (CCRIS), 2018).

Test system: rodent chemically induced tumor inhibition, incidence and multiplicity
Test: CCRIS tumor inhibitor studies
Conditions: Route [Inhibitor]: ORAL, Promoter: NONE USED

In the case of `Cc1c(-c2cnccn2)ssc1=S`, the “tumour outcome (control, treated, inhibition, significance)” value (Carcinogen: AZOXYMETHANE, 25843-45-2, Dose [Inhibitor]: 0, 200 PPM IN DIET FOR 56 WK BEGINNING 2 WK PRIOR TO CARCINOGEN TREATMENT (STUDY DURATION: 56 WK), Species: RAT, Strain/Sex: F344/MALE, Target Tissue: Type of Lesion: SMALL INTESTINE (DISTAL): TUMOR, Dose [Carcinogen]: 15 MG/KG 1/WK FOR 2 WK) is given as 12%, 5%, 58%, not significant, the “tumour outcome (control, treated, inhibition, significance)” value (Carcinogen: AZOXYMETHANE, 25843-45-2, Dose [Inhibitor]: 0, 200 PPM IN DIET FOR 56 WK BEGINNING 2 WK PRIOR TO CARCINOGEN TREATMENT (STUDY DURATION: 56 WK), Species: RAT, Strain/Sex: F344/MALE, Target Tissue: Type of Lesion: SMALL INTESTINE (PROXIMAL): TUMOR, Dose [Carcinogen]: 15 MG/KG 1/WK FOR 2 WK) is given as 33%, 14%, 58%, not significant and the “tumour outcome (control, treated, inhibition, significance)” value (Carcinogen: AZOXYMETHANE, 25843-45-2, Dose [Inhibitor]: 0, 400 PPM IN DIET 7 WK PRIOR TO CARCINOGEN TREATMENT AND CONTINUING FOR STUDY DURATION (STUDY DURATION: 59 WK), Species: RAT, Strain/Sex: F344/MALE, Target Tissue: Type of Lesion: COLON: ADENOCARCINOMA, Dose [Carcinogen]: 15 MG/KG 1/WK FOR 2 WK) is given as 72%, 50%, 31%, p<0.05. The “tumour outcome (control, treated, inhibition, significance)” value (Carcinogen: AZOXYMETHANE, 25843-45-2, Dose [Inhibitor]: 0, 400 PPM IN DIET 7 WK PRIOR TO CARCINOGEN TREATMENT AND CONTINUING FOR STUDY DURATION (STUDY DURATION: 59 WK), Species: RAT, Strain/Sex: F344/MALE, Target Tissue: Type of Lesion: COLON: ADENOMA, Dose [Carcinogen]: 15 MG/KG 1/WK FOR 2 WK) was 14%, 8%, 43%, not calculated, the “tumour outcome (control, treated, inhibition, significance)” value (Carcinogen: AZOXYMETHANE, 25843-45-2, Dose [Inhibitor]: 0, 400 PPM IN DIET 7 WK PRIOR TO CARCINOGEN TREATMENT AND CONTINUING FOR STUDY DURATION (STUDY DURATION: 59 WK), Species: RAT, Strain/Sex: F344/MALE, Target Tissue: Type of Lesion: SMALL INTESTINE: ADENOCARCINOMA, Dose [Carcinogen]: 15 MG/KG 1/WK FOR 2 WK) was 50%, 8%, 84%, p<0.001 and the “tumour outcome (control, treated, inhibition, significance)” value (Carcinogen: AZOXYMETHANE, 25843-45-2, Dose [Inhibitor]: 0, 400 PPM IN DIET 7 WK PRIOR TO CARCINOGEN TREATMENT AND CONTINUING FOR STUDY DURATION (STUDY DURATION: 59 WK), Species: RAT, Strain/Sex: F344/MALE, Target Tissue: Type of Lesion: SMALL INTESTINE: ADENOMA, Dose [Carcinogen]: 15 MG/KG 1/WK FOR 2 WK) was 3%, 0%, 100%, not calculated. For the same compound, the “tumour outcome (control, treated, inhibition, significance)” value (Carcinogen: AZOXYMETHANE, 25843-45-2, Dose [Inhibitor]: 0, 400 PPM IN DIET FOR 56 WK BEGINNING 2 WK PRIOR TO CARCINOGEN TREATMENT (STUDY DURATION: 56 WK), Species: RAT, Strain/Sex: F344/MALE, Target Tissue: Type of Lesion: COLON (DISTAL): TUMOR, Dose [Carcinogen]: 15 MG/KG 1/WK FOR 2 WK) was 47%, 36%, 23%, not significant, the “tumour outcome (control, treated, inhibition, significance)” value (Carcinogen: AZOXYMETHANE, 25843-45-2, Dose [Inhibitor]: 0, 400 PPM IN DIET FOR 56 WK BEGINNING 2 WK PRIOR TO CARCINOGEN TREATMENT (STUDY DURATION: 56 WK), Species: RAT, Strain/Sex: F344/MALE, Target Tissue: Type of Lesion: COLON (PROXIMAL): TUMOR, Dose [Carcinogen]: 15 MG/KG 1/WK FOR 2 WK) was 39%, 36%, 8%, not significant and the “tumour outcome (control, treated, inhibition, significance)” value (Carcinogen: AZOXYMETHANE, 25843-45-2, Dose [Inhibitor]: 0, 400 PPM IN DIET FOR 56 WK BEGINNING 2 WK PRIOR TO CARCINOGEN TREATMENT (STUDY DURATION: 56 WK), Species: RAT, Strain/Sex: F344/MALE, Target Tissue: Type of Lesion: SMALL INTESTINE (PROXIMAL): TUMOR, Dose [Carcinogen]: 15 MG/KG 1/WK FOR 2 WK) was 33%, 5%, 85%, p<0.05. The “tumour outcome (control, treated, inhibition, significance)” value (Carcinogen: AZOXYMETHANE, 25843-45-2, Dose [Inhibitor]: 0, 400 PPM IN DIET FOR 56 WK BEGINNING 2 WK PRIOR TO CARCINOGEN TREATMENT (STUDY DURATION: 56 WK), Species: RAT, Strain/Sex: F344/MALE, Target Tissue: Type of Lesion: SMALL INTESTINE(DISTAL): TUMOR, Dose [Carcinogen]: 15 MG/KG 1/WK FOR 2 WK) was 12%, 5%, 58%, not significant, the “tumour outcome (control, treated, inhibition, significance)” value (Carcinogen: AZOXYMETHANE, 25843-45-2, Dose [Inhibitor]: O, 200 PPM IN DIET 7 WK PRIOR TO CARCINOGEN TREATMENT AND CONTINUING FOR STUDY DURATION (STUDY DURATION: 59 WK), Species: RAT, Strain/Sex: F344/MALE, Target Tissue: Type of Lesion: SMALL INTESTINE, ADENOMA, Dose [Carcinogen]: 15 MG/KG 1/WK FOR 2 WK) was 3%, 0%, 100%, not calculated and the “tumour outcome (control, treated, inhibition, significance)” value (Carcinogen: BENZO[A]PYRENE, 50-32-8, Dose [Inhibitor]: 0, 180 PPM IN DIET FOR 36 WK BEGINNING 48 HR PRIOR TO CARCINOGEN DOSE (STUDY DURATION: 36 WK), Species: MOUSE, Strain/Sex: STRAIN-A/FEMALE, Target Tissue: Type of Lesion: LUNG: TUMOR, Dose [Carcinogen]: 100 MG/KG IN 0.1 ML OF TRICAPRYLIN ONCE) was 100%, 100%, 0%, not significant. For the same compound, the “tumour outcome (control, treated, inhibition, significance)” value (Carcinogen: BENZO[A]PYRENE, 50-32-8, Dose [Inhibitor]: 0, 360 PPM IN DIET FOR 36 WK BEGINNING 48 HR PRIOR TO CARCINOGEN DOSE (STUDY DURATION: 36 WK), Species: MOUSE, Strain/Sex: STRAIN-A/FEMALE, Target Tissue: Type of Lesion: LUNG: TUMOR, Dose [Carcinogen]: 100 MG/KG IN 0.1 ML OF TRICAPRYLIN ONCE) was 100%, 100%, 0%, not significant, the “tumour outcome (control, treated, inhibition, significance)” value (Carcinogen: DIETHYLNITROSAMINE, 55-18-5, Dose [Inhibitor]: 0, 300 MG/KG DIET FOR DURATION OF STUDY BEGINNING 1 WK PRIOR TO CARCINOGEN TREATMENT (STUDY DURATION: 25 WK), Species: HAMSTER, Strain/Sex: SYRIAN/MALE, Target Tissue: Type of Lesion: LUNG: CARCINOMA, Dose [Carcinogen]: 17.8 MG/KG BW 2/WK FOR 20 WK) was 50%, 33%, 34%, not significant and the “tumour outcome (control, treated, inhibition, significance)” value (Carcinogen: DIETHYLNITROSAMINE, 55-18-5, Dose [Inhibitor]: 0, 300 MG/KG DIET FOR DURATION OF STUDY BEGINNING 1 WK PRIOR TO CARCINOGEN TREATMENT (STUDY DURATION: 25 WK), Species: HAMSTER, Strain/Sex: SYRIAN/MALE, Target Tissue: Type of Lesion: TRACHEA: PAPILLOMA, Dose [Carcinogen]: 17.8 MG/KG BW 2/WK FOR 20 WK) was 95%, 85%, 11%, not significant. The “tumour outcome (control, treated, inhibition, significance)” value (Carcinogen: DIETHYLNITROSAMINE, 55-18-5, Dose [Inhibitor]: 0, 600 MG/KG DIET FOR DURATION OF STUDY BEGINNING 1 WK PRIOR TO CARCINOGEN TREATMENT (STUDY DURATION: 25 WK), Species: HAMSTER, Strain/Sex: SYRIAN/MALE, Target Tissue: Type of Lesion: LUNG: CARCINOMA, Dose [Carcinogen]: 17.8 MG/KG BW 2/WK FOR 20 WK) was 60%, 0%, 100%, p<0.0001.
